Measurements from PubChem BioAssay (NCI).
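Protocol summary: plate cells (96-well), add compound at 5 concentrations, incubate 48 h, interpolate endpoints linearly. TGI is the concentration that stops growth completely.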

How the values were obtained:
Assay in all cases: inhibition of tumour cell growth, NCI panel, 48 h
MALME-3M melanoma = tested on: MALME-3M melanoma
CCRF-CEM leukemia = tested on: CCRF-CEM leukemia
A498 renal = tested on: A498 renal
LOX IMVI melanoma = tested on: LOX IMVI melanoma
HCT-116 colon = tested on: HCT-116 colon
SW-620 colon = tested on: SW-620 colon
OVCAR-3 ovarian = tested on: OVCAR-3 ovarian
HL-60(TB) leukemia = tested on: HL-60(TB) leukemia
MDA-N = tested on: MDA-N
NCI-H460 lung = tested on: NCI-H460 lung
EKVX NSCLC = tested on: EKVX NSCLC
IGROV1 ovarian = tested on: IGROV1 ovarian
KM12 colon = tested on: KM12 colon
NCI-H226 lung = tested on: NCI-H226 lung
MDA-MB-435 = tested on: MDA-MB-435
M14 melanoma = tested on: M14 melanoma
COLO 205 colon = tested on: COLO 205 colon
U251 CNS = tested on: U251 CNS
DU-145 prostate = tested on: DU-145 prostate
ACHN renal = tested on: ACHN renal
A549 NSCLC = tested on: A549 NSCLC
UO-31 renal = tested on: UO-31 renal
MDA-MB-231 breast = tested on: MDA-MB-231 breast
HCT-15 colon = tested on: HCT-15 colon
K-562 leukemia = tested on: K-562 leukemia
OVCAR-8 ovarian = tested on: OVCAR-8 ovarian
TK-10 renal = tested on: TK-10 renal
786-0 renal = tested on: 786-0 renal
HS 578T breast = tested on: HS 578T breast
RPMI-8226 leukemia = tested on: RPMI-8226 leukemia
OVCAR-5 ovarian = tested on: OVCAR-5 ovarian
HOP-92 NSCLC = tested on: HOP-92 NSCLC
SK-MEL-2 melanoma = tested on: SK-MEL-2 melanoma
SF-295 CNS = tested on: SF-295 CNS
SK-MEL-28 melanoma = tested on: SK-MEL-28 melanoma
MOLT-4 leukemia = tested on: MOLT-4 leukemia
CAKI-1 renal = tested on: CAKI-1 renal
NCI-H522 lung = tested on: NCI-H522 lung
HCC-2998 colon = tested on: HCC-2998 colon
SNB-75 CNS = tested on: SNB-75 CNS
MCF7 breast = tested on: MCF7 breast
NCI-H23 lung = tested on: NCI-H23 lung
SK-MEL-5 melanoma = tested on: SK-MEL-5 melanoma
NCI/ADR-RES ovarian = tested on: NCI/ADR-RES ovarian
T-47D breast = tested on: T-47D breast
PC-3 prostate = tested on: PC-3 prostate
SK-OV-3 ovarian = tested on: SK-OV-3 ovarian
OVCAR-4 ovarian = tested on: OVCAR-4 ovarian
SN12C renal = tested on: SN12C renal
HT29 colon = tested on: HT29 colon
BT-549 breast = tested on: BT-549 breast
UACC-257 melanoma = tested on: UACC-257 melanoma
HOP-62 NSCLC = tested on: HOP-62 NSCLC
SF-268 CNS = tested on: SF-268 CNS
UACC-62 melanoma = tested on: UACC-62 melanoma
RXF 393 renal = tested on: RXF 393 renal
SNB-19 CNS = tested on: SNB-19 CNS
SF-539 CNS = tested on: SF-539 CNS

## O=c1sc2c(s1)-c1sc(=O)sc1SS2
MALME-3M melanoma
  TGI: > 100 µM
CCRF-CEM leukemia
  TGI: > 96 µM
A498 renal
  TGI: > 62.2 µM
LOX IMVI melanoma
  TGI: > 100 µM
HCT-116 colon
  TGI: > 100 µM
SW-620 colon
  TGI: > 100 µM
OVCAR-3 ovarian
  TGI: > 100 µM
HL-60(TB) leukemia
  TGI: > 100 µM
MDA-N
  TGI: > 100 µM
NCI-H460 lung
  TGI: > 100 µM
EKVX NSCLC
  TGI: > 100 µM
IGROV1 ovarian
  TGI: > 100 µM
KM12 colon
  TGI: > 100 µM
NCI-H226 lung
  TGI: > 73.1 µM
MDA-MB-435
  TGI: > 100 µM
M14 melanoma
  TGI: > 100 µM
COLO 205 colon
  TGI: > 65 µM
U251 CNS
  TGI: > 31.6 µM
DU-145 prostate
  TGI: > 89.8 µM
ACHN renal
  TGI: > 100 µM
A549 NSCLC
  TGI: > 100 µM
UO-31 renal
  TGI: > 100 µM
MDA-MB-231 breast
  TGI: > 100 µM
HCT-15 colon
  TGI: > 31.6 µM
K-562 leukemia
  TGI: > 100 µM
OVCAR-8 ovarian
  TGI: 48.9 µM
TK-10 renal
  TGI: > 79.4 µM
786-0 renal
  TGI: > 100 µM
HS 578T breast
  TGI: > 100 µM
RPMI-8226 leukemia
  TGI: > 100 µM
OVCAR-5 ovarian
  TGI: > 75.3 µM
HOP-92 NSCLC
  TGI: > 100 µM
SK-MEL-2 melanoma
  TGI: > 100 µM
SF-295 CNS
  TGI: > 100 µM
SK-MEL-28 melanoma
  TGI: > 100 µM
MOLT-4 leukemia
  TGI: > 100 µM
CAKI-1 renal
  TGI: > 100 µM
NCI-H522 lung
  TGI: > 100 µM
HCC-2998 colon
  TGI: > 100 µM
SNB-75 CNS
  TGI: > 100 µM
MCF7 breast
  TGI: > 100 µM
NCI-H23 lung
  TGI: > 60.5 µM
SK-MEL-5 melanoma
  TGI: > 100 µM
NCI/ADR-RES ovarian
  TGI: > 76.3 µM
T-47D breast
  TGI: > 100 µM
PC-3 prostate
  TGI: > 100 µM
SK-OV-3 ovarian
  TGI: > 100 µM
OVCAR-4 ovarian
  TGI: > 100 µM
SN12C renal
  TGI: > 100 µM
HT29 colon
  TGI: > 56.9 µM
BT-549 breast
  TGI: > 100 µM
UACC-257 melanoma
  TGI: > 100 µM
HOP-62 NSCLC
  TGI: > 100 µM
SF-268 CNS
  TGI: > 100 µM
UACC-62 melanoma
  TGI: > 100 µM
RXF 393 renal
  TGI: > 100 µM
SNB-19 CNS
  TGI: > 100 µM
SF-539 CNS
  TGI: 99.1 µM

## Cc1ccc2c(=O)c(C(=O)Nn3c(C)csc3=S)c[nH]c2n1
MALME-3M melanoma
  TGI: > 100 µM
CCRF-CEM leukemia
  TGI: > 100 µM
A498 renal
  TGI: > 100 µM
LOX IMVI melanoma
  TGI: > 100 µM
HCT-116 colon
  TGI: > 100 µM
SW-620 colon
  TGI: > 100 µM
OVCAR-3 ovarian
  TGI: > 100 µM
HL-60(TB) leukemia
  TGI: > 100 µM
MDA-N
  TGI: > 100 µM
NCI-H460 lung
  TGI: > 100 µM
EKVX NSCLC
  TGI: > 100 µM
IGROV1 ovarian
  TGI: > 100 µM
KM12 colon
  TGI: > 100 µM
NCI-H226 lung
  TGI: > 100 µM
MDA-MB-435
  TGI: > 100 µM
M14 melanoma
  TGI: > 100 µM
COLO 205 colon
  TGI: > 100 µM
U251 CNS
  TGI: > 100 µM
DU-145 prostate
  TGI: > 100 µM
ACHN renal
  TGI: > 100 µM
A549 NSCLC
  TGI: > 100 µM
UO-31 renal
  TGI: > 100 µM
MDA-MB-231 breast
  TGI: > 100 µM
HCT-15 colon
  TGI: > 100 µM
K-562 leukemia
  TGI: > 100 µM
OVCAR-8 ovarian
  TGI: > 100 µM
TK-10 renal
  TGI: > 100 µM
786-0 renal
  TGI: > 100 µM
HS 578T breast
  TGI: > 100 µM
RPMI-8226 leukemia
  TGI: > 100 µM
OVCAR-5 ovarian
  TGI: > 100 µM
SK-MEL-2 melanoma
  TGI: > 100 µM
SF-295 CNS
  TGI: > 100 µM
SK-MEL-28 melanoma
  TGI: > 100 µM
MOLT-4 leukemia
  TGI: > 100 µM
CAKI-1 renal
  TGI: > 100 µM
NCI-H522 lung
  TGI: > 100 µM
MCF7 breast
  TGI: > 100 µM
NCI-H23 lung
  TGI: > 100 µM
SK-MEL-5 melanoma
  TGI: > 100 µM
NCI/ADR-RES ovarian
  TGI: > 100 µM
T-47D breast
  TGI: > 100 µM
PC-3 prostate
  TGI: > 100 µM
OVCAR-4 ovarian
  TGI: > 100 µM
SN12C renal
  TGI: > 100 µM
HT29 colon
  TGI: > 100 µM
BT-549 breast
  TGI: > 100 µM
UACC-257 melanoma
  TGI: > 100 µM
HOP-62 NSCLC
  TGI: > 100 µM
SF-268 CNS
  TGI: > 100 µM
UACC-62 melanoma
  TGI: > 100 µM
RXF 393 renal
  TGI: > 100 µM
SNB-19 CNS
  TGI: > 100 µM
